≈ marks a conversion by molar mass, not a printed value. Read-outs that look alike come from different tables or passages of the source.
Key:
Pseudomonas sp. = assay: In vitro activity against fish bacterial pathogens, tube dilution (Experiment 13); assay type: cell-based; settings: tryptose broth, overnight, 37°C., read-out: minimum inhibitory concentration (MIC), Pseudomonas
Aeromonas liquefaciens = assay: as above; settings: Aeromonas hydrophila, read-out: minimum inhibitory concentration (MIC), Aeromonas liquetaciens
Salmonella typhimurium = assay: Activity against Salmonella typhimurium in chicks when administered in the feed (Experiment 4); assay type: in vivo; settings: for Final Avg. Chicken Wt.: tenth day
Description: The activity of certain of the nitroimidazoles against Salmonella typhimurium in chicks when administered in the feed was determined.
One-day-old chicks, divided into groups of 12, were given compound 1, 6, or 7 in the feed at levels of 100 g. per ton, 50 g. per ton, 25 g. per ton, and 10 g. per ton continuously throughout the experiments. Several replicates of nonmedicated infected control groups were included. Later on day 1, all replicates were given 50.0 ml. of a tryptose broth culture of S. typhimurium as their initial liquid for drinking. This was placed in the cage waterer and served as the challenge.
Daily records of mortality were maintained and survivors were weighed on the tenth day of the experiment, the day of termination. The compounds tested are identified by the numbers 1, 6, and 7, as set forth hereinabove. In the chart, column 1 lists the test compound; column 2, the dosage level of test compound in grams per ton of feed; column 3 lists the number of replicates run on each compound at each dosage level; column 4 lists the survival ratio; and column 5, the final average chicken weight.

[1] = system: Pasteurella multocida, bovine strain; assay: Oral activity against Pasteurella multocida, bovine strain, in mice (Experiment 3); assay type: in vivo, White Swiss mice; settings: 100 g. per ton of feed; LD50 of control minus LD50 of treated group (log10 dilutions)
Description: White Swiss female mice weighing 15-20 g. each were used in the test. Seven groups of ten mice each were treated at a level of 100 g. of test compound per ton of feed. The animals received the medication in the feed for 2 days prior to challenge and for 7 days post challenge. Similar groups of mice on a ration without the antimicrobial agent were used as controls. Both the treated mice and the control groups of mice were challenged with log10 dilutions ranging from 10^-^2 through 10^-^8 of a 16 to 20-hour culture of Pasteurella multocida, bovine strain, at 0.1 ml. per mouse, administered subcutaneously. […] By subtracting the LD50 of each of the treated groups from that of the control group of mice, there was obtained a figure called the protective index.
In the chart, column 1 lists the test compound, identified in the same manner as set forth in Experiment 1; and column 2 lists the protective index.

E. coli = assay: Oral activity against E. coli infection in chickens (Experiment 6); assay type: in vivo
Description: The evaluation of the effectiveness of selected nitroimidazoles for their oral activity against E. coli infection in chickens was accomplished as follows.
Broiler type, five-week-old chickens were wing-banded and individually weighed. Replicates of 8 chickens, each replicate having the same average chicken weight, were formed. Three replicates were run for each treatment. Treatment was initiated via the feed 24 hours prior to challenge. The E. coli challenge strain was No. 2- 1- 8. The challenge inoculum consisted of 0.5 ml. of 10^-^1 dilution of a 15-18 hour tryptose broth culture administered into the right thoracic air sac of each chicken. Eight to ten days following challenge, all surviving chickens were weighed and examined for lesions. Any chicken that died during the experiment was also examined for lesions such as air sac lesions, pericarditis lesions, and perihepatitis lesions, and a culture made. The pre-treatment average weight per bird was 790 g. The test compounds were the same as before, identified as 1, 6, and 7.

Salmonella dublin = assay: In vivo activity against Salmonella dublin in calves (Experiment 11)
Description: The in vivo activity of compound 1 against Salmonella dublin was determined in the following manner.
The calves for the in vivo experiment were purchased from a commercial source. Thirty-two calves were brought to the research facility where they were weighed individually and identified by ear tag. Each calf weighed about 90 pounds. The calves were then randomly divided by weight into eight groups of four calves each. Rectal swabs for Salmonella dublin and Escherichia coli isolation were obtained before treatment was started.
Four groups of four calves each were treated with the test compound. Treatment was started 24 hours after challenge with Salmonella dublin and continued for six consecutive days. Treatment was accomplished by oral administration twice daily of gelatin capsules of test compound 1. During the treatment, rectal swabs were taken daily of each calf and bacterial isolations for salmonella species were run. At the end of the trial, rectal swabs for E. coli and salmonella species were taken again. The trials were terminated the day following the last treatment, at which time the calves were weighed and sacrificed.
In the chart, column 1 records the dose rate/day/calf; column 2, the dose rate in mg./lb.; column 3, the survival ratio observed; and column 4, the occurrence of salmonella isolates obtained at necropsy.

[2] = 100 mg./day oral (1.25 mg./lb.)
[3] = 100 g./ton in feed, all medicated pigs

With `Cn1nc(-c2ncc([N+](=O)[O-])n2C)c(C#N)c1N` [Compound 1, 5-Amino-1-methyl-3-(1-methyl-5-nitro-2-imidazolyl)pyrazole-4-carbonitrile] the MIC (Pseudomonas sp.) was 6.25 µg/mL (≈ 25.3 µM), the MIC (Aeromonas liquefaciens) was 3.12 µg/mL (≈ 12.6 µM) and the “Survival Ratio” value (Salmonella typhimurium; 10 g./ton in feed) was 28/36. The “Final Avg. Chicken Wt.” value (Salmonella typhimurium; 10 g./ton in feed) was 97 g, the “Survival Ratio” value (Salmonella typhimurium; 25 g./ton in feed) was 36/36 and the “Final Avg. Chicken Wt.” value (Salmonella typhimurium; 25 g./ton in feed) was 121 g. For the same molecule, the “Survival Ratio” value (Salmonella typhimurium; 50 g./ton in feed) was 36/36, the “Final Avg. Chicken Wt.” value (Salmonella typhimurium; 50 g./ton in feed) was 116 g and the “Survival Ratio” value (Salmonella typhimurium; 100 g./ton in feed) was 35/36. The “Final Avg. Chicken Wt.” value (Salmonella typhimurium; 100 g./ton in feed) was 105 g, the “Protective Index” value [1] was > 5.6 and the “Avg. Wt./Chicken” value (E. coli; 100 g./ton in feed) was 1058 g. For the same molecule, the “No. chickens with lesions/No. in group” value (E. coli; 100 g./ton in feed) was 16/24, the “Survival Ratio” value (E. coli; 100 g./ton in feed) was 24/24 and the “Avg. Wt./Chicken” value (E. coli; 200 g./ton in feed) was 1104 g. For the same molecule, the “No. chickens with lesions/No. in group” value (E. coli; 200 g./ton in feed) was 8/24, the “Survival Ratio” value (E. coli; 200 g./ton in feed) was 24/24 and the “Avg. Wt./Chicken” value (E. coli; 300 g./ton in feed) was 1014 g. The “No. chickens with lesions/No. in group” value (E. coli; 300 g./ton in feed) was 1/24, the “Survival Ratio” value (E. coli; 300 g./ton in feed) was 24/24 and the “Salmonella isolates at necropsy” value (Salmonella dublin; [2]) was 1/4. The “Survival Ratio” value (Salmonella dublin; [2]) was 4/4, the “Salmonella isolates at necropsy” value (Salmonella dublin; 250 mg./day oral (2.5 mg./lb.)) was 2/4 and the “Survival Ratio” value (Salmonella dublin; 250 mg./day oral (2.5 mg./lb.)) was 4/4. For the same molecule, the “Salmonella isolates at necropsy” value (Salmonella dublin; 500 mg./day oral (5 mg./lb.)) was 1/4, the “Survival Ratio” value (Salmonella dublin; 500 mg./day oral (5 mg./lb.)) was 4/4 and the “Salmonella isolates at necropsy” value (Salmonella dublin; 1000 mg./day oral (11 mg./lb.)) was 0/4. For the same molecule, the “Survival Ratio” value (Salmonella dublin; 1000 mg./day oral (11 mg./lb.)) was 4/4, the “salmonella isolates from organs of treated calves” value (Salmonella dublin; at termination of the trial) was “reduced number of salmonella isolates” and the “control of Salmonella dublin in calves” value (Salmonella dublin; compound 1 oral, about 100 to about 1000 mg./day/calf) was “effective in controlling Salmonella dublin in calves”. The “blood and/or mucus in the colon at necropsy” value (Treponema hyodysenteriae; 100 g./ton in feed) was “not found in the colon of any pig”, the “Days with Blood and Mucus in Pen” value (Treponema hyodysenteriae; 100 g./ton in feed, Group 1) was 0 and the “Days with Diarrhea in Pen” value (Treponema hyodysenteriae; 100 g./ton in feed, Group 1) was 0. For the same molecule, the “Initial Wt. (at time of challenge)” value (Treponema hyodysenteriae; 100 g./ton in feed, Group 1) was 35.3, the “Mortality (No. Died)” value (Treponema hyodysenteriae; 100 g./ton in feed, Group 1) was 0 and the “Avg. Wt. of Pigs, Survivors” value (Treponema hyodysenteriae; 100 g./ton in feed, Group 1, day 7) was 43.3. For the same molecule, the “Avg. Wt. of Pigs, Survivors” value (Treponema hyodysenteriae; 100 g./ton in feed, Group 1, day 14) was 51.0, the “Avg. Wt. of Pigs, Survivors” value (Treponema hyodysenteriae; 100 g./ton in feed, Group 1, day 19) was 57.3 and the “Avg. Gain (Survivors) From Day Of Challenge” value (Treponema hyodysenteriae; 100 g./ton in feed, Group 1, killed 19 days post-challenge) was 22.0 lb. For the same molecule, the “Days with Blood and Mucus in Pen” value (Treponema hyodysenteriae; 100 g./ton in feed, Group 2) was 0, the “Days with Diarrhea in Pen” value (Treponema hyodysenteriae; 100 g./ton in feed, Group 2) was 0 and the “Initial Wt. (at time of challenge)” value (Treponema hyodysenteriae; 100 g./ton in feed, Group 2) was 35.3. The “Mortality (No. Died)” value (Treponema hyodysenteriae; 100 g./ton in feed, Group 2) was 0, the “Avg. Wt. of Pigs, Survivors” value (Treponema hyodysenteriae; 100 g./ton in feed, Group 2, day 7) was 42.1 and the “Avg. Wt. of Pigs, Survivors” value (Treponema hyodysenteriae; 100 g./ton in feed, Group 2, day 14) was 50.0. For the same molecule, the “Avg. Wt. of Pigs, Survivors” value (Treponema hyodysenteriae; 100 g./ton in feed, Group 2, day 21) was 59.7, the “Avg. Wt. of Pigs, Survivors” value (Treponema hyodysenteriae; 100 g./ton in feed, Group 2, day 28) was 71.2 and the “Avg. Gain (Survivors) From Day Of Challenge” value (Treponema hyodysenteriae; 100 g./ton in feed, Group 2, killed 28 days post-challenge) was 35.9 lb. For the same molecule, the “deaths during the trial” value (Treponema hyodysenteriae; [3]) was “None of the pigs receiving the test compound died”, the diarrhea (Treponema hyodysenteriae; [3]) was “not detected” and the “mucus and blood in feces” value (Treponema hyodysenteriae; 100 g./ton in feed, whole trial) was “not observed at any time during the trial”. The “control of induced swine dysentery” value (Treponema hyodysenteriae; 100 g./ton in feed, overall conclusion) was “highly effective”, the “control of Treponema hyodysenteriae in swine” value (Treponema hyodysenteriae; compound 1 in the feed about 100 g./ton) was “effective in the control of Treponema hyodysenteriae in swine” and the “slight areas of hemorrhage in the colon and/or stomach” value (Treponema hyodysenteriae; pig, in vivo) was “seen in most of the pigs”. The “recurrence of swine dysentery” value (Treponema hyodysenteriae; replicate 2, unmedicated ration day 17 until day 28) was “not observed”.

With `COC=Nc1c(C#N)c(-c2ncc([N+](=O)[O-])n2C)nn1C` [Compound 6, Methyl N-[4-cyano-1-methyl-3-(1-methyl-5-nitro-2-imidazolyl)pyrazol-5-yl]formimidate] the “Survival Ratio” value (Salmonella typhimurium; 10 g./ton in feed) was 33/36, the “Final Avg. Chicken Wt.” value (Salmonella typhimurium; 10 g./ton in feed) was 110 g and the “Survival Ratio” value (Salmonella typhimurium; 25 g./ton in feed) was 36/36. For the same molecule, the “Final Avg. Chicken Wt.” value (Salmonella typhimurium; 25 g./ton in feed) was 119 g, the “Survival Ratio” value (Salmonella typhimurium; 50 g./ton in feed) was 35/36 and the “Final Avg. Chicken Wt.” value (Salmonella typhimurium; 50 g./ton in feed) was 125 g. For the same molecule, the “Survival Ratio” value (Salmonella typhimurium; 100 g./ton in feed) was 33/36, the “Final Avg. Chicken Wt.” value (Salmonella typhimurium; 100 g./ton in feed) was 101 g and the “Protective Index” value [1] was 4.3. The “Avg. Wt./Chicken” value (E. coli; 100 g./ton in feed) was 1098 g, the “No. chickens with lesions/No. in group” value (E. coli; 100 g./ton in feed) was 11/24 and the “Survival Ratio” value (E. coli; 100 g./ton in feed) was 24/24. The “Avg. Wt./Chicken” value (E. coli; 200 g./ton in feed) was 1059 g, the “No. chickens with lesions/No. in group” value (E. coli; 200 g./ton in feed) was 1/24 and the “Survival Ratio” value (E. coli; 200 g./ton in feed) was 24/24. The “Avg. Wt./Chicken” value (E. coli; 300 g./ton in feed) was 1055 g, the “No. chickens with lesions/No. in group” value (E. coli; 300 g./ton in feed) was 6/24 and the “Survival Ratio” value (E. coli; 300 g./ton in feed) was 24/24.

For `CCCCOC=Nc1c(C#N)c(-c2ncc([N+](=O)[O-])n2C)nn1C` [Compound 7, Butyl N-[4-Cyano-1-methyl-3-(1-methyl-5-nitro-2-imidazolyl)-pyrazol-5-yl]formimidate], the “Survival Ratio” value (Salmonella typhimurium; 10 g./ton in feed) was 25/36, the “Final Avg. Chicken Wt.” value (Salmonella typhimurium; 10 g./ton in feed) was 100 g and the “Survival Ratio” value (Salmonella typhimurium; 25 g./ton in feed) was 34/36. The “Final Avg. Chicken Wt.” value (Salmonella typhimurium; 25 g./ton in feed) was 117 g, the “Survival Ratio” value (Salmonella typhimurium; 50 g./ton in feed) was 36/36 and the “Final Avg. Chicken Wt.” value (Salmonella typhimurium; 50 g./ton in feed) was 121 g. For the same molecule, the “Survival Ratio” value (Salmonella typhimurium; 100 g./ton in feed) was 33/36, the “Final Avg. Chicken Wt.” value (Salmonella typhimurium; 100 g./ton in feed) was 102 g and the “Protective Index” value [1] was 3.4. The “Avg. Wt./Chicken” value (E. coli; 100 g./ton in feed) was 1023 g, the “No. chickens with lesions/No. in group” value (E. coli; 100 g./ton in feed) was 15/24 and the “Survival Ratio” value (E. coli; 100 g./ton in feed) was 24/24. The “Avg. Wt./Chicken” value (E. coli; 200 g./ton in feed) was 1033 g, the “No. chickens with lesions/No. in group” value (E. coli; 200 g./ton in feed) was 23/24 and the “Survival Ratio” value (E. coli; 200 g./ton in feed) was 24/24. The “Avg. Wt./Chicken” value (E. coli; 300 g./ton in feed) was 1132 g, the “No. chickens with lesions/No. in group” value (E. coli; 300 g./ton in feed) was 6/24 and the “Survival Ratio” value (E. coli; 300 g./ton in feed) was 24/24.

Source: patent US3980794A, “Method for promoting growth of poultry with 3-(5-nitro-2-imidazolyl)pyrazoles” (Eli Lilly and Company, priority 1975, dated 1976)
